Measured values: patent US20070299114A1, “Biaryl Derivatives” (Shionogi & Co., Ltd., priority 2004, published 2007)

system: anti-OVA IgE antibody; assay: suppression of IgE antibody production to anti-ovalbumin (OVA) in immunized mice, PCA titer; assay type: in vivo; conditions: dose 10 mg/kg orally for consecutive 10 days; anti-OVA IgE antibody value (PCA titer, Log2 of maximum serum dilution rate) in BALB/c mice
Method: Effect of Suppression of IgE Antibody Production to Anti-Ovalbumin (OVA)
BALB/c mice (female, 8 to 10 week old) purchased from Japan Charles River (Kanagawa) and Wistar rats (female, 8 to 10 week old) purchased from Japan SLC (Sizuoka) were used.
BALB/c mice were immunized by intraperitoneally injecting 0.2 ml of a solution obtained by suspending 2 μg of ovalbumin (OVA) and an aluminum hydroxide gel (1 mg) in a brine. After ten days, blood was taken from a heart, the serum was separated, and an IgE antibody value was measured.
[…] Administration was performed from immunization date to the day before blood collection for consecutive 10 days.
4) Measurement of Anti-OVA IgE Antibody Value (PCA Titer)
The resulting mouse serum was prepared into a 2-fold dilution series with a brine, and each 50 μl of this was subcutaneously injected into a back of a pre-shaved Wistar rat. After 24 hours, 0.5 ml of a brine containing 1 mg of OVA and 5 mg of an Evans Blue dye was intravenously injected to induce a passive skin anaphylactic reaction (PCA).

SMILES	PCA
CCC/C=C/CNc1ccc(-c2c(C)c(OC)c(/C=C(\C)C(=O)O)c(C)c2OC)cc1 [Compound 573]	0<
C/C(=C\c1cc(C)c(-c2ccc(NC(C)C)cc2)cc1C)C(=O)NC1CCCCC1 [Compound 80]	5.3
C/C(=C\c1c(C)c(C)c(-c2ccc(NC3CCCC3)cc2F)c(C)c1C)C(=O)NC1CCCC1 [Compound 459]	2.7
CC/C(=C\c1c(C)c(F)c(-c2ccc(NC(C)C)cc2)c(C)c1F)C(=O)O [Compound 493]	4.0

same assay, conditions: dose 40 mg/kg orally for consecutive 10 days; anti-OVA IgE antibody value (PCA titer, Log2 of maximum serum dilution rate) in BALB/c mice

SMILES	PCA
COc1c(C)c(-c2ccc(NC3CCCCC3)cc2)c(OC)c(C)c1/C=C(\C)C(=O)N[C@H](C)C(=O)O [Compound 562]	0<
C/C(=C\c1c(C)c(F)c(-c2ccc(NC(C)C)nc2)c(C)c1F)C(=O)NC(C)C [Compound 484]	0<

system: Human lymphocyte; assay: suppression of IgE antibody production in human lymphocyte stimulated with anti-human CD40 antibody and IL-4; assay type: cell-based; conditions: 216 h; IgE antibody production by human lymphocyte, anti-human CD40 antibody + IL-4, cultured for 9 days, ELISA
Method: Effect of Suppressing Antibody Production Using Human Lymphocyte
1) Human Peripheral Blood
Human peripheral blood was collected with a plastic syringe containing heparin (final concentration 1.5%) from a vein of an adult healthy person, and subjected to collection of lymphocyte immediately after blood collection.
To the RPMI medium (Sigma) were added 10% of fetal bovine serum, (HyClone Lab.) which had been immobilized at 56° C. for 30 minutes, penicillin (100 units/ml) and streptomycin (100 μg/ml) (Invitrogen), which was used.
The present compound was dissolved in dimethyl sulfoxide (Nakalai Tesque) to 2 mg/ml and, thereafter, the solution was diluted with a medium to a final concentration of 0.01 pg/ml to 10 μg/ml.
Human peripheral blood was mixed with an equal amount of PBS-10 mM EDTA, 10 ml of this was overlaid on a tube containing 3 ml of Ficoll-Paque Plus (Pharmacia Biotech), followed by centrifugation at room temperature and 300×g for 30 minutes to obtain a lymphocyte layer. The collected cell suspension was centrifugation-washed with a sterilized Hanks's balanced salt solution (Invitrogen), passed through a nylon mesh, and centrifugation-washed with a medium, which was used in an experiment as human lymphocyte.
5) Inducement of IgE Antibody Production Due to B cell Stimulation
Human lymphocyte was seeded on a 96-well culturing plate (Sumitomo Bakelite) to 2×10^5 cells per well, and the compound, an anti-human CD40 antibody (Pharmingen, 2 μg/ml), and human recombinant interleukin-4 (IL-4) (PEPROTECH, 0.1 μg/ml) were added, followed by culturing at 37° C. under the presence of 5% CO2 (0.2 ml/well). After cultured for 9 days, an amount of an antibody produced in the supernatant was quantitated by a specific ELISA method.
6) Quantitation of IgE Antibody
For quantitating IgE, a commercially available kit, MESACUP IgE Test (Medical & Biological Laboratories Co., Ltd.) was used. An experimental method was according to the manual, an experiment was performed duplicately, and an average was obtained.

IC50	SMILES
6.6 ng/mL	CCC/C=C/CNc1ccc(-c2c(C)c(OC)c(/C=C(\C)C(=O)O)c(C)c2OC)cc1 [Compound 573]
4.6 ng/mL	C/C(=C\c1cc(C)c(-c2ccc(NC(C)C)cc2)cc1C)C(=O)NC1CCCCC1 [Compound 80]
8.4 ng/mL	COc1c(C)c(-c2ccc(NC3CCCCC3)cc2)c(OC)c(C)c1/C=C(\C)C(=O)N[C@H](C)C(=O)O [Compound 562]
0.8 ng/mL	C/C(=C\c1c(C)c(C)c(-c2ccc(NC3CCCC3)cc2F)c(C)c1C)C(=O)NC1CCCC1 [Compound 459]
9.4 ng/mL	CC/C(=C\c1c(C)c(F)c(-c2ccc(NC(C)C)cc2)c(C)c1F)C(=O)O [Compound 493]
9.3 ng/mL	C/C(=C\c1c(C)c(F)c(-c2ccc(NC(C)C)nc2)c(C)c1F)C(=O)NC(C)C [Compound 484]

biological target: T1, dihydrooroate dehydrogenase (Homo sapiens, UniProt Q02127); assay: dihydroorotate dehydrogenase inhibition, U-937 mitochondrial/microsomal fraction, DCIP absorbance at 620 nm; assay type: biochemical; conditions: DHODH of human U-937 cell mitochondrial/microsomal fraction; 37° C., 120 minutes
T1 construct: ultracentrifugation at 4° C. and 120,000×g for 60 minutes afforded a mitochondrial/microsomal fraction; endogenous in cells; host or cells: U-937 (human histiocytic lymphoma cell line), mitochondrial/microsomal fraction
T1 sequence (Q02127 whole entry): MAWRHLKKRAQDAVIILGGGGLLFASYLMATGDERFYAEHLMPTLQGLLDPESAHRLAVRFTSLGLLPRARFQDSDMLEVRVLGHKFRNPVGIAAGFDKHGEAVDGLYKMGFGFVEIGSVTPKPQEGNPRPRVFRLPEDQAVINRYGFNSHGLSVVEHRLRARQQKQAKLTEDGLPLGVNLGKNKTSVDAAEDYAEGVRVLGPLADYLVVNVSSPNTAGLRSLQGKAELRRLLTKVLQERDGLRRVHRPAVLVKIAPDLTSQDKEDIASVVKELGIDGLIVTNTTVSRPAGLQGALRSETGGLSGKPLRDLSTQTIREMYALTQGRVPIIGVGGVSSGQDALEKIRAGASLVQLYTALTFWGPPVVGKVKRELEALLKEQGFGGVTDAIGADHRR
Method: Method of Testing dihydrooroate dehydrogenase Inhibition
Human U-937 cell (human histiocytic lymphoma cell line) was sonicated in a homogenizing buffer (20 mM Tris-HC1, pH 7.4, containing 2 mM EDTA and protease inhibitor cocktail), and this was centrifuged at 4° C. and 1,200×g for 15 minutes to remove cell debris. Further, ultracentrifugation at 4° C. and 120,000×g for 60 minutes afforded a mitochondrial/microsomal fraction. The resulting fraction was quantitated for a protein, and prepared to 10 mg/ml, which was freezing-stored in a −40° C. in a refrigerator until measurement. To 150 μl of the reaction solution (50 mM Tris-HC1, pH 7.4, containing 0.1% Triton X-100, 1 mM KCN, 100 μM coenzyme Q10, 200 μM DCIP), were added 10 μl of a dilution series of the compound and 0.2 mg of a mitochondrial/microsomal fraction, followed by pre-incubation at 37° C. for 30 minutes. Then, 20 μl of a 5 mM DHO solution (final concentration […]), which is a substrate, was added, this was incubated at 37° C. for 120 minutes, and an absorbance at a measurement wavelength of 620 nm was measured. A rate of suppression of a compound at each concentration relative to a change in an absorbance due to the enzyme reaction was obtained, and a concentration indicating 50% inhibition (IC50 value) was calculated to assess the inhibition activity of the compound.

IC50	SMILES
8.14 nM	COc1cc(-c2ccc(NCc3ccco3)cc2F)c(OC)cc1/C=C(/F)C(=O)NC1CC1 [Compound 41]
8.97 nM	C/C(=C\c1cc(C)c(-c2ccc(NC(C)C)cc2F)cc1C)C(=O)N[C@H](C)C(=O)O [Compound 349]
10.1 nM	COc1cc(-c2ccc(NCc3ccco3)cc2F)c(OC)cc1/C=C(/F)C(=O)NC(C)C [Compound 42]
7.52 nM	COc1cc(-c2ccc(NC(C)C)cc2F)c(OC)cc1/C=C(\C)C(=O)NC1CC1 [Compound 24]
2.39 nM	C/C(=C\c1c(C)c(C)c(-c2ccc(NC(C)C)cc2)c(C)c1C)C(=O)NC1CCCC1 [Compound 434]
4.07 nM	CC/C(=C\c1cc(C)c(-c2ccc(NCc3ccco3)cc2)cc1C)C(=O)NC1CCCC1 [Compound 309]
3.67 nM	CC(C)=CCNc1ccc(-c2cc(C)c(/C=C(\C)C(=O)NC(C)C)cc2C)c(F)c1 [Compound 116]
6.1 nM	COC(=O)[C@@H](C)NC(=O)/C(C)=C/c1cc(C)c(-c2ccc(NC(C)C)cc2F)cc1C [Compound 348]
6.49 nM	C/C(=C\c1c(C)c(C)c(-c2ccc(NC(C)C)cc2F)c(C)c1C)C(=O)NS(=O)(=O)c1ccccc1 [Compound 422]
13.6 nM	C/C(=C\c1cc(C)c(-c2ccc3[nH]c(C)cc3c2)cc1C)C(=O)NC(C)C [Compound 383]
9.32 nM	COc1c(C)c(-c2ccc(NCC=C(C)C)cc2)c(OC)c(C)c1/C=C(\C)C(=O)NC(C)C [Compound 574]
11.1 nM	CC/C(=C\c1cc(C)c(-c2ccc(NC3CCCC3)cc2)cc1C)C(=O)NC1CCCC1 [Compound 313]
1.01 nM	C/C(=C\c1c(C)c(C)c(-c2ccc(NC3CCCC3)cc2)c(C)c1C)C(=O)NC1CC1 [Compound 426]
7.13 nM	C/C(=C\c1cc(C)c(-c2ccc(NCc3ccco3)cc2F)cc1C)C(=O)NC(C)C [Compound 158]
7.33 nM	COc1cc(-c2ccc(NCc3ccco3)cc2F)c(OC)cc1/C=C(\C)C(=O)NC1CC1 [Compound 28]
5.23 nM	C/C(=C\c1cc(C)c(-c2cccc3[nH]ccc23)cc1C)C(=O)NC1CC1 [Compound 281]
10.2 nM	CC/C(=C\c1cc(C)c(-c2ccc(NC3CCCC3)cc2F)cc1C)C(=O)NC1CCCCC1 [Compound 325]
9.8 nM	CC/C(=C\c1c(C)c(OC)c(-c2ccc(NC(C)C)cc2)c(C)c1OC)C(=O)NC(C)C [Compound 530]
7.31 nM	Cc1cc(-c2cc(O)c3[nH]ccc3c2)c(C)cc1/C=C(\Cl)C(=O)NC(C)C [Compound 267]
6.71 nM	C/C(=C\c1c(C)c(C)c(-c2ccc3[nH]ccc3c2)c(C)c1C)C(=O)NC1CC1 [Compound 417]
9.65 nM	COc1c(C)c(-c2ccc(NCC=C(C)C)cc2)c(OC)c(C)c1/C=C(\C)C(=O)NC1CCCC1 [Compound 575]
7.2 nM	Cc1c(F)c(-c2ccc(NC3CCCC3)cc2)c(C)c(F)c1/C=C(\F)C(=O)NC(C)C [Compound 518]

IC50	SMILES
13.1 nM	C/C(=C\c1c(C)c(C)c(-c2ccc3[nH]ccc3c2)c(C)c1C)C(=O)NC(C)C [Compound 427]
6.11 nM	C/C(=C\c1c(C)c(C)c(-c2ccc(NC(C)C)cc2)c(C)c1C)C(=O)NC(C)C [Compound 415]
10 nM	C/C(=C\c1c(C)c(F)c(-c2ccc(NC(C)C)cc2)c(C)c1F)C(=O)NC1CC1 [Compound 488]
8.84 nM	C/C(=C\c1cc(C)c(-c2ccc(NC3CCCC3)cc2)cc1C)C(=O)NC(C)(C)C [Compound 414]
7.88 nM	C/C(=C\c1cc(C)c(-c2ccc(NC(C)C)cc2F)cc1C)C(=O)NC1CC1 [Compound 154]
2.56 nM	C/C(=C\c1c(C)c(C)c(-c2ccc(NC(C)C)cc2)c(C)c1C)C(=O)NC1CC1 [Compound 424]
10.1 nM	CC/C(=C\c1cc(C)c(-c2ccc(NC(C)C)cc2F)cc1C)C(=O)NC1CC1 [Compound 165]
2.63 nM	C/C(=C\c1c(C)c(C)c(-c2ccc(NC3CCCC3)cc2)c(C)c1C)C(=O)NC(C)C [Compound 416]
4.68 nM	CC/C(=C\c1cc(C)c(-c2ccc(NC3CCCC3)cc2F)cc1C)C(=O)NC1CCCC1 [Compound 324]
5.78 nM	Cc1cc(-c2cc(O)c3[nH]ccc3c2)c(C)cc1/C=C(\Cl)C(=O)NC1CC1 [Compound 268]
7.73 nM	COc1cc(-c2ccc(NCc3ccco3)cc2F)c(OC)cc1/C=C(\C)C(=O)NC(C)C [Compound 27]
8.39 nM	COc1c(C)c(-c2ccc(NC3CCCC3)cc2)c(OC)c(C)c1/C=C(\C)C(=O)NC1CCCC1 [Compound 536]
2.76 nM	CO/C(=C\c1cc(C)c(-c2ccc(NC(C)C)cc2F)cc1C)C(=O)NC(C)C [Compound 292]
6.39 nM	CC/C(=C\c1cc(C)c(-c2ccc(NC(C)C)cc2F)cc1C)C(=O)NC1CCCC1 [Compound 321]
9.22 nM	C/C(=C\c1c(C)c(C)c(-c2ccc(NC3CCCC3)cc2)c(C)c1C)C(=O)NC1CCCC1 [Compound 463]
7.13 nM	CC/C(=C\c1cc(C)c(-c2ccc(NC3CCCC3)cc2F)cc1C)C(=O)NC1CC1 [Compound 173]
2.79 nM	C/C(=C\c1c(C)c(C)c(-c2ccc(NCc3ccco3)cc2)c(C)c1C)C(=O)NC(C)C [Compound 418]
0.91 nM	C/C(=C\c1c(C)c(C)c(-c2ccc(NCc3ccco3)cc2)c(C)c1C)C(=O)NC1CC1 [Compound 425]
3.33 nM	COc1c(C)c(-c2ccc(NC(C)C)cc2)c(OC)c(C)c1/C=C(\C)C(=O)NC1CCCC1 [Compound 528]
9.57 nM	Cc1cc(-c2ccc3[nH]ccc3c2)c(C)cc1/C=C(\Cl)C(=O)N[C@H](C)C(=O)O [Compound 299]
2.46 nM	C/C(=C\c1cc(C)c(-c2ccc(NCc3ccco3)cc2F)cc1C)C(=O)NC1CCCC1 [Compound 334]
